The values that follow are results of earlier work, collected in patent US11173186B2, “Dosing regime and formulations for type B adenovirus” (PSIOXUS THERAPEUTICS LIMITED, priority 2013, dated 2021).

The conditions of this data set: interim analysis; intratumoural talimogene laherparepvec vs subcutaneous GM-CSF.

As for “GM-CSF: subcutaneously administered GM-CSF, comparator in the OPTiM trial”, the durable response rate was 2%.
